Article PMC6379104 (Clinical pharmacology and therapeutics, 2018)
“And” between values parts separate entries of the source, which are not always exact repeats. Equal values may be shown once. Read-outs that look alike come from different tables or passages of the source.

Columns and labels:
[1] = test system: cell-associated unspliced (CA-US) HIV RNA; conditions: three consecutive days of DSF at all doses (500, 1000, 2000 mg); cited from earlier work
plasma HIV RNA [2] = conditions: DSF 500 mg for 14 days; cited from earlier work
clinical = conditions: human, in vivo
[3] = test system: cell-associated unspliced (CA-US) HIV RNA; type: in vivo, HIV-1
plasma HIV RNA [4] = type: in vivo, HIV-1
cell-associated HIV DNA = conditions: three consecutive days of DSF; cited from earlier work
[5] = test system: latent HIV in Bcl-2-transduced primary CD4+ T cells; conditions: cited from earlier work
[6] = Population pharmacokinetic model of plasma disulfiram and four metabolites
plasma HIV RNA [7] = conditions: three consecutive days of DSF; cited from earlier work
[8] = in humans; cited from earlier work
plasma HIV RNA [9] = conditions: following administration of vorinostat; cited from earlier work
CA-US HIV RNA = conditions: following administration of vorinostat; cited from earlier work
[10] = model estimate at AUC0–72 of 2270 mg*h/L (500 mg dose group median)
[11] = final PK model, estimate (RSE %)

CCN(CC)C(=S)SSC(=S)N(CC)CC [DSF, Disulfiram]
change in CA-US RNA [1]: statistically significant dose-dependent increases
change in plasma HIV RNA (plasma HIV RNA [2]): transient but non-statistically significant increases
Km (clinical): 0.217 µg/mL
AUC50 ([3]; exposure-response of AUC0–72 on CA-US HIV RNA): 1600 µg·h/L
Emax ([3]; increase in CA-US HIV RNA): 78%
Emax (fraction increase) ([3]; increase in CA-US HIV-1 RNA, estimate (RSE %)): 78 (13.6)
potential participants achieving >90% of Emax [3, 10]: over 70%
potential participants achieving less than a third of Emax [3, 10]: 15%
potential participants achieving >98% of Emax ([3]; model estimate at AUC0–72 of 3883 mg*h/L (lowest in 1000 mg dose group)): 95%
exposure-response relationship of AUC0–72 on CA-US RNA ([3]; negative binomial PK/PD models, all three baseline values): statistically significant exposure-response relationship
median change in plasma HIV RNA (plasma HIV RNA [4]; by day 31, 2000 mg group): 1.17 copies/mL
median change in plasma HIV RNA (plasma HIV RNA [4]; during the treatment dosing period, 500 mg group): -0.22 copies/mL
exposure-response between AUC0–72 and plasma HIV RNA (plasma HIV RNA [4]; negative binomial regression models): a statistically significant exposure-response was not observed
change in CA-DNA (cell-associated HIV DNA): no significant differences
activation of latent HIV in vitro [5]: reactivated latent HIV
time by which drug was completely eliminated ([6]; 3 consecutive daily doses): ≤ 72 h
BV (%) in CL/F (between-subject variability) [6, 11]: 36% and 36 (14) %
V (volume of distribution) [6, 11]: 1.29 (9.1) L
Vd ([6]; human, plasma, oral, V (volume of distribution), final PK model, estimate (RSE %)): 1.3 L
change in plasma HIV RNA (plasma HIV RNA [7]): increased, but only at day 31 and only in participants receiving the highest dose (2000 mg)
estimated half-life [8]: about 7 hours

CCN(CC)C(=S)S [M1, N,N-diethyldithiocarbamate]
activation of latent HIV in vitro [5]: reactivated latent HIV
Km (Michaelis-Menten constant, concentration at which elimination is half maximal) [6, 11]: 480 (6.2) ng/mL
V (volume of distribution) [6, 11]: 0.0906 (16.6) L

CCN(CC)C(=S)SC [M2, diethyldithiocarbamate-methyl ester]
activation of latent HIV in vitro [5]: but not M2 (DDTC-Me), reactivated latent HIV
Q (flow from central compartment to periphery) [6, 11]: 0.0776 (14.0)
V (volume of distribution) [6, 11]: 0.00404 (8.0) L
Vperiph (calculated peripheral volume) [6, 11]: 28.9 (17.3) L

CCN(CC)C(=O)[S+](C)[O-] (stereo not drawn) [M3, S-methyl-N,N-diethylthiolcarbamate sulfoxide]
V (volume of distribution) [6, 11]: 0.0647 (15.6) L

CCN(CC)C(=O)SC[C@H](NC(=O)CC[C@H](N)C(=O)O)C(=O)NCC(=O)O [M4, carbamathione]
Km (Michaelis-Menten constant, concentration at which elimination is half maximal) [6, 11]: 543 (4.3) ng/mL
V (volume of distribution) [6, 11]: 0.581 (10.3) L

O=C(CCCCCCC(=O)Nc1ccccc1)NO [vorinostat]
change in plasma HIV RNA (plasma HIV RNA [9]): a significant change in plasma HIV RNA was not observed
change in CA-US HIV RNA (CA-US HIV RNA): significant increases
